Where “and” joins values, the source holds several entries; their conditions need not be identical. Identical values can stand only once.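 Briefly, cells in 96-well plates were exposed to five compound concentrations for 48 h, and endpoints were estimated by linear interpolation. GI50 is the concentration that inhibits growth by half.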 Calls of active or inactive are those of the source. Cut-off read from the data, not from the text of the source: active = GI50 up to about 1.1 µM and inactive = higher.
Assays:
Assay in all cases: growth of human tumour cells (NCI), 48 h
[1] = system: A498
[2] = system: A549
[3] = system: COLO 205
[4] = system: DLD-1
[5] = system: EKVX
[6] = system: HCT-15
[7] = system: HOP-18
[8] = system: HOP-62
[9] = system: K562
[10] = system: LOX IMVI
[11] = system: LXFL 529
[12] = system: MOLT-4
[13] = system: Malme-3M
[14] = system: NCI-H226
[15] = system: OVCAR-4
[16] = system: OVCAR-8
[17] = system: RXF 631
[18] = system: SF-268
[19] = system: SK-OV-3
[20] = system: SN12C
[21] = system: SNB-75
[22] = system: SNB-78
[23] = system: UACC-62
[24] = system: XF498
[25] = system: 786-0
[26] = system: ACHN
[27] = system: CAKI-1
[28] = system: CCRF-CEM
[29] = system: DMS-114
[30] = system: HCC 2998
[31] = system: HCT-116
[32] = system: HL-60
[33] = system: HOP-92
[34] = system: HT-29
[35] = system: IGROV-1
[36] = system: KM-20L2
[37] = system: KM12
[38] = system: M14
[39] = system: M19-MEL
[40] = system: NCI-H23
[41] = system: NCI-H460
[42] = system: NCI-H522
[43] = system: OVCAR-3
[44] = system: OVCAR-5
[45] = system: RPMI-8226
[46] = system: RXF 393
[47] = system: SF-295
[48] = system: SF-539
[49] = system: SK-MEL-28
[50] = system: SK-MEL-5
[51] = system: SNB-19
[52] = system: SR
[53] = system: SW-620
[54] = system: TK-10
[55] = system: U-251
[56] = system: UACC-257
[57] = system: UO-31
[58] = system: DMS-273
[59] = system: SK-MEL-2

Structure (SMILES): C/C=C(/CCC1NCCc2c1[nH]c1ccccc21)[Si](C)(C)C (stereo not drawn)
- GI50 [1]: 19.2 µM (inactive) and 11.3 µM (inactive)
- GI50 [2]: 14.2 µM (inactive)
- GI50 [3]: 1.94 µM (inactive)
- GI50 [4]: 8.3 µM (inactive)
- GI50 [5]: 7.85 µM (inactive)
- GI50 [6]: 6.27 µM
- GI50 [7]: 11.9 µM (inactive)
- GI50 [8]: 13.5 µM (inactive)
- GI50 [9]: 29.2 µM (inactive) and 2.49 µM (inactive)
- GI50 [10]: 4.42 µM (inactive)
- GI50 [11]: 1.85 µM (inactive)
- GI50 [12]: 37.2 µM (inactive) and 2.37 µM (inactive)
- GI50 [13]: 33.3 µM (inactive) and 1.78 µM (inactive)
- GI50 [14]: 13.8 µM (inactive)
- GI50 [15]: 81.7 µM (inactive) and 4.11 µM (inactive)
- GI50 [16]: 8.97 µM (inactive)
- GI50 [17]: 58.5 µM (inactive) and 6.87 µM (inactive)
- GI50 [18]: 10.9 µM (inactive)
- GI50 [19]: 13.4 µM (inactive)
- GI50 [20]: 5.61 µM (inactive)
- GI50 [21]: 95.3 µM (inactive) and 6.17 µM (inactive)
- GI50 [22]: 11.6 µM (inactive)
- GI50 [23]: 78.9 µM (inactive) and 12.8 µM (inactive)
- GI50 [24]: 74.3 µM (inactive) and 1.73 µM (inactive)

Structure (SMILES): Cc1cccc(C)c1NC(=O)CCC(=O)/N=C(\N)NC#N
- GI50 [25]: > 100 µM (inactive)
- GI50 [1]: > 100 µM (inactive)
- GI50 [2]: > 100 µM (inactive)
- GI50 [26]: > 100 µM (inactive)
- GI50 [27]: > 100 µM (inactive)
- GI50 [28]: > 100 µM (inactive)
- GI50 [3]: > 100 µM (inactive)
- GI50 [4]: > 100 µM (inactive)
- GI50 [29]: > 100 µM (inactive)
- GI50 [5]: > 100 µM (inactive)
- GI50 [30]: > 100 µM (inactive)
- GI50 [31]: > 100 µM (inactive)
- GI50 [6]: > 100 µM
- GI50 [32]: > 100 µM (inactive)
- GI50 [7]: > 100 µM (inactive)
- GI50 [8]: > 100 µM (inactive)
- GI50 [33]: > 100 µM (inactive)
- GI50 [34]: > 100 µM (inactive)
- GI50 [35]: > 100 µM (inactive)
- GI50 [9]: > 100 µM (inactive)
- GI50 [36]: > 100 µM (inactive)
- GI50 [37]: > 100 µM (inactive)
- GI50 [10]: > 100 µM (inactive)
- GI50 [11]: > 100 µM (inactive)
- GI50 [38]: > 100 µM (inactive)
- GI50 [39]: > 100 µM (inactive)
- GI50 [12]: > 100 µM (inactive)
- GI50 [13]: > 100 µM (inactive)
- GI50 [14]: > 100 µM (inactive)
- GI50 [40]: > 100 µM (inactive)
- GI50 [41]: > 100 µM (inactive)
- GI50 [42]: > 100 µM (inactive)
- GI50 [43]: > 100 µM (inactive)
- GI50 [15]: > 100 µM (inactive)
- GI50 [44]: > 100 µM (inactive)
- GI50 [16]: > 100 µM (inactive)
- GI50 [45]: > 100 µM (inactive)
- GI50 [46]: > 100 µM (inactive)
- GI50 [17]: > 100 µM (inactive)
- GI50 [18]: > 100 µM (inactive)
- GI50 [47]: > 100 µM (inactive)
- GI50 [48]: > 100 µM (inactive)
- GI50 [49]: 77.8 µM (inactive)
- GI50 [50]: > 100 µM (inactive)
- GI50 [19]: > 100 µM (inactive)
- GI50 [20]: > 100 µM (inactive)
- GI50 [51]: > 100 µM (inactive)
- GI50 [21]: > 100 µM (inactive)
- GI50 [52]: > 100 µM (inactive)
- GI50 [53]: > 100 µM (inactive)
- GI50 [54]: > 100 µM (inactive)
- GI50 [55]: > 100 µM (inactive)
- GI50 [56]: > 100 µM (inactive)
- GI50 [23]: > 100 µM (inactive)
- GI50 [57]: > 100 µM (inactive)
- GI50 [24]: > 100 µM (inactive)

Structure (SMILES): c1ccc2c(c1)nc1n2CSC1
- GI50 [1]: > 100 µM (inactive)
- GI50 [26]: > 100 µM (inactive)
- GI50 [27]: > 100 µM (inactive)
- GI50 [28]: > 100 µM (inactive)
- GI50 [3]: > 100 µM (inactive)
- GI50 [4]: > 100 µM (inactive)
- GI50 [29]: > 100 µM (inactive)
- GI50 [58]: > 100 µM (inactive)
- GI50 [5]: > 100 µM (inactive)
- GI50 [6]: > 100 µM
- GI50 [32]: > 100 µM (inactive)
- GI50 [7]: > 100 µM (inactive)
- GI50 [33]: 24 µM (inactive)
- GI50 [34]: > 100 µM (inactive)
- GI50 [35]: > 100 µM (inactive)
- GI50 [9]: > 100 µM (inactive)
- GI50 [36]: > 100 µM (inactive)
- GI50 [10]: > 100 µM (inactive)
- GI50 [11]: > 100 µM (inactive)
- GI50 [38]: > 100 µM (inactive)
- GI50 [39]: > 100 µM (inactive)
- GI50 [12]: > 100 µM (inactive)
- GI50 [13]: > 100 µM (inactive)
- GI50 [14]: > 100 µM (inactive)
- GI50 [40]: > 100 µM (inactive)
- GI50 [41]: > 100 µM (inactive)
- GI50 [42]: > 100 µM (inactive)
- GI50 [43]: > 100 µM (inactive)
- GI50 [16]: > 100 µM (inactive)
- GI50 [45]: > 100 µM (inactive)
- GI50 [17]: > 100 µM (inactive)
- GI50 [18]: > 100 µM (inactive)
- GI50 [47]: > 100 µM (inactive)
- GI50 [48]: > 100 µM (inactive)
- GI50 [49]: > 100 µM (inactive)
- GI50 [59]: > 100 µM (inactive)
- GI50 [50]: > 100 µM (inactive)
- GI50 [19]: > 100 µM (inactive)
- GI50 [20]: > 100 µM (inactive)
- GI50 [51]: > 100 µM (inactive)
- GI50 [21]: > 100 µM (inactive)
- GI50 [22]: > 100 µM (inactive)
- GI50 [53]: > 100 µM (inactive)
- GI50 [54]: > 100 µM (inactive)
- GI50 [55]: > 100 µM (inactive)
- GI50 [23]: > 100 µM (inactive)
- GI50 [57]: > 100 µM (inactive)
- GI50 [24]: > 100 µM (inactive)

— ChEMBL document CHEMBL1201862, “PubChem BioAssay data set” (2004)
